≈ marks a conversion by molar mass, not a printed value.
Experiment: Cytotoxicity against human Ec9706 cells after 48 hrs by MTT assay
Assay type: functional, cell-based
Settings: EC9706, 48 h

SMILES | IC50
COC(OC)C1OC(C)(C)OC1Cc1cnc2ccc([N+](=O)[O-])cc2n1 (stereo unspecified) | 69.2 µg/mL (≈ 190 µM)
COC(OC)C1OC(C)(C)OC1Cc1cnc2cc(Cl)ccc2n1 (stereo unspecified) | 30.5 µg/mL (≈ 86.4 µM)
COC(OC)C1OC(C)(C)OC1Cc1cnc2ccc(Cl)cc2n1 (stereo unspecified) | 30.5 µg/mL (≈ 86.4 µM)
COC(OC)C1OC(C)(C)OC1Cc1cnc2ccccc2n1 (stereo unspecified) | > 100 µg/mL
COC(OC)C1OC(C)(C)OC1Cc1cnc2cc(C(=O)c3ccccc3)ccc2n1 (stereo unspecified) | 80 µg/mL (≈ 189 µM)
COC(OC)C1OC(C)(C)OC1Cc1cnc2ccc(C(=O)c3ccccc3)cc2n1 (stereo unspecified) | 80 µg/mL (≈ 189 µM)
